How the values were obtained:
[1] = system: patient with probable multiple system atrophy; format: in vivo, human; settings: single MSA patient, oral Nilotinib 200 mg
Excerpt: A person who presented with inability to walk. The disease started 4 years ago with a slowing of their gait and tremors at rest in both hands. […] They had been experiencing dizziness, dysphagia during the past year, and urinary urgency during the previous six months.
Upon admission, the patient could not walk without assistance and needed intermittent bladder catheterization because of urinary incontinence. […] Informed consent was obtained from the patient and their family before treatment of oral Nilotinib 200 mg […]. The monthly monitoring included a physical and a neurological exam, an electrocardiogram, and complete blood count and chemistry.

[2] = system: patients with probable MSA; format: in vivo, human; settings: oral 200 mg daily
Description: Five patients fulfilled the consensus criteria for “probable MSA” and received oral Nilotinib 200 mg daily for 24 weeks. Disease progression was monitored every 4 weeks by measuring the patient's motor and non-motor symptoms with the Unified Multiple System Atrophy Rating Scale (UMSARS). Mini Mental State Examination (MMSE) was used to screen for cognitive impairment. […] However, these AEs resolved with continued administration of the drug. […] Furthermore, there was a significant decline of 6.8 and 2.2 points in the UMSARS and UMSARS-II, respectively, compared to baseline (see FIG. 2). MMSE results were normal throughout treatment.

PD and DLB subjects = settings: 24 weeks of treatment with 300 mg Nilotinib; cited from earlier work
[3] = average of five MSA patients, 24 weeks

Cc1cn(-c2cc(NC(=O)c3ccc(C)c(Nc4nccc(-c5cccnc5)n4)c3)cc(C(F)(F)F)c2)cn1 [Nilotinib]
non-motor symptoms (swallowing, constipation, urinary function) ([1]; 24 weeks): significant improvement of non-motor symptoms | walking ability at the end of the study ([1]; 24 weeks, could not walk without assistance upon admission): could walk slowly without assistance | nonserious adverse events ([1]; 24 weeks, no hospitalization, resolved with continuous use): mild skin irritation, dizziness, and mild headache | decrease on the UMSARS compared with baseline ([1]; week 24): 11 points | decrease on the UMSARS-II compared with baseline ([1]; week 24): 6 points | decline in the UMSARS compared to baseline [2, 3]: 6.8 points | decline in the UMSARS-II compared to baseline [2, 3]: 2.2 points | non-motor symptoms (swallowing, constipation, urinary function) ([2]; five MSA patients, end of 24 weeks): improvement of non-motor symptoms | decline in UPDRS I-IV (PD and DLB subjects): 11.1 points

From US20190038624A1 (priority 2017, published 2019)
